Measured values reported in patent publication US10189853B2, “Conformationally restricted 4-substituted-2,6-dimethylfuro[2,3-d]pyrimidines as anti-tumor agents” (DUQUESNE UNIVERSITY OF THE HOLY SPIRIT, priority 2014, dated 2019).

Key:
[1] = system: MCF7; experiment: NCI 60 cell line panel; format: cell-based; conditions: Homo sapiens, Breast Cancer
[2] = system: HCT-116; experiment: NCI 60 cell line panel; format: cell-based; conditions: Homo sapiens, Colon Cancer
[3] = system: SKOV3 cells; experiment: Antiproliferative SRB assay; format: cell-based; conditions: Homo sapiens, SK-OV-3, 48 h, read-out: IC50 ± SD in SKOV3 cells
[4] = system: SK-OV-3; experiment: NCI 60 cell line panel; format: cell-based; conditions: Homo sapiens, Ovarian cancer
[5] = system: HS 578T; experiment: NCI 60 cell line panel; format: cell-based; conditions: Homo sapiens, Breast Cancer
[6] = system: MDA-435 cells; experiment: Antiproliferative SRB assay; format: cell-based; conditions: MDA435, 48 h, read-out: IC50 ± SD in MDA-435 cells
[7] = system: HL-60(TB); experiment: NCI 60 cell line panel; format: cell-based; conditions: Homo sapiens, Leukemia
[8] = system: SNB-19; experiment: NCI 60 cell line panel; format: cell-based; conditions: Homo sapiens, CNS Cancer
[9] = system: SF-268; experiment: NCI 60 cell line panel; format: cell-based; conditions: Homo sapiens, CNS Cancer
[10] = system: SK-MEL-5; experiment: NCI 60 cell line panel; format: cell-based; conditions: Homo sapiens, Melanoma
[11] = system: SF-539; experiment: NCI 60 cell line panel; format: cell-based; conditions: Homo sapiens, CNS Cancer
[12] = system: SK-MEL-2; experiment: NCI 60 cell line panel; format: cell-based; conditions: Homo sapiens
[13] = system: SN 12C; experiment: NCI 60 cell line panel; format: cell-based; conditions: Homo sapiens, SN12C, Renal Cancer
[14] = system: K-562; experiment: NCI 60 cell line panel; format: cell-based; conditions: Homo sapiens, K562, Leukemia
[15] = system: HeLa cells; experiment: Antiproliferative SRB assay; format: cell-based; conditions: Homo sapiens, HeLa, 48 h, read-out: IC50 ± SD in HeLa
[16] = system: M14; experiment: NCI 60 cell line panel; format: cell-based; conditions: Homo sapiens, Melanoma
[17] = system: TK-10; experiment: NCI 60 cell line panel; format: cell-based; conditions: Homo sapiens, Renal Cancer
[18] = system: ACHN; experiment: NCI 60 cell line panel; format: cell-based; conditions: Homo sapiens, Renal Cancer
[19] = system: NCI/ADR-RES; experiment: NCI 60 cell line panel; format: cell-based; conditions: Homo sapiens, Ovarian cancer
[20] = system: KM12; experiment: NCI 60 cell line panel; format: cell-based; conditions: Homo sapiens, Colon Cancer
[21] = biological target: VEGFR-2 (Homo sapiens (Human), UniProt P35968); experiment: VEGFR-2 kinase inhibition, phosphotyrosine ELISA cytoblot; format: cell-based; conditions: for IC50: U251 cells, phosphotyrosine ELISA
Sequence of VEGFR-2 (P35968 20-1356): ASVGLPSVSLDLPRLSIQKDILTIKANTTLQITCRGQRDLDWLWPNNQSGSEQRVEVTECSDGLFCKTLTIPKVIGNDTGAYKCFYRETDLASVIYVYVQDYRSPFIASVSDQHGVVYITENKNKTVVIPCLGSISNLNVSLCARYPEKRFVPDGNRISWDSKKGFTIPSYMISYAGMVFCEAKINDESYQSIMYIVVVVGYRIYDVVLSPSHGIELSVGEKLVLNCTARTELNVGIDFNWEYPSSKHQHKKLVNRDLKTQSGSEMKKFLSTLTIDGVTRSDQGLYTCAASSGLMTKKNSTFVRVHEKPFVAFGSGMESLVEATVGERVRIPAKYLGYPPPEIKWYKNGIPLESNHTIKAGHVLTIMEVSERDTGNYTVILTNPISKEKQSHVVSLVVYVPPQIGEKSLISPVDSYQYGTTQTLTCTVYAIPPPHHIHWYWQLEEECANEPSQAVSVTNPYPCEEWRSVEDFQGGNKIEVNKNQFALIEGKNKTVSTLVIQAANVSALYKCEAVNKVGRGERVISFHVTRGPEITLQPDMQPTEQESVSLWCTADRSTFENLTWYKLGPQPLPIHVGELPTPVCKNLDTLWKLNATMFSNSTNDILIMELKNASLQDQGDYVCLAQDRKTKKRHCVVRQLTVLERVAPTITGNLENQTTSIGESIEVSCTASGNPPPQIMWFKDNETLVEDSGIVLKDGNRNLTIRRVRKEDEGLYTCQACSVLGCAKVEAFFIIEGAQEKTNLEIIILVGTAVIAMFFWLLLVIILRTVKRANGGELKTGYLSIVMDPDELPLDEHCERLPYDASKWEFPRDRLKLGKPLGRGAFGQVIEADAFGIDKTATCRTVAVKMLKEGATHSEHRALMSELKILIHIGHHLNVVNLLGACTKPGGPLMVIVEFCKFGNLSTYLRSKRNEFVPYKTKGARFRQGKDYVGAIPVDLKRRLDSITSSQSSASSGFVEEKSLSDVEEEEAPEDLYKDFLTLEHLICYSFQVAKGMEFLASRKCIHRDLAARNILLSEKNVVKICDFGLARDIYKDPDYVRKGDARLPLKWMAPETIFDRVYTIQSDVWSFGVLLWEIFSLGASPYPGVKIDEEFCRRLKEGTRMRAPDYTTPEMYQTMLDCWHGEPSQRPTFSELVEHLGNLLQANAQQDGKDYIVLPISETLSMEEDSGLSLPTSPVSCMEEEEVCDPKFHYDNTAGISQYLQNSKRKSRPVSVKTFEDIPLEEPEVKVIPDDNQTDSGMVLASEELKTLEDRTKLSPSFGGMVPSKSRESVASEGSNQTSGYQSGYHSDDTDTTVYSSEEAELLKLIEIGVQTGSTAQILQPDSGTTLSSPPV
Experimental: Cells used were tumor cell lines naturally expressing high levels of EGFR (A431), VEGFR-2 (U251), and PDGFR-β (SH-SYSY). […] The reaction was stopped and cells were permeabilized by quickly removing the media from the cells and adding ice-cold Tris-buffered saline (TBS) containing 0.05% Triton X-100, protease inhibitor cocktail and tyrosine phosphatase inhibitor cocktail. The TBS solution was then removed and cells fixed to the plate for 30 min at 60° C. and further incubation in 70% ethanol for an additional 30 min. Cells were further exposed to block (TBS with 1% BSA) for 1 h, washed, and then a horseradish peroxidase (HRP)-conjugated phosphotyrosine (PY) antibody was added overnight.

[22] = system: U251; experiment: NCI 60 cell line panel; format: cell-based; conditions: Homo sapiens, U-251, CNS Cancer
[23] = system: EKVX; experiment: NCI 60 cell line panel; format: cell-based; conditions: Homo sapiens, NSCLC
[24] = system: WTβ3 cells (HeLa overexpressing βIII tubulin); experiment: Antiproliferative SRB assay; format: cell-based; conditions: for IC50: Homo sapiens, HeLa, SRB, 48 h, read-out: IC50 ± SD in WTβ3
[25] = system: NCI-H460; experiment: NCI 60 cell line panel; format: cell-based; conditions: Homo sapiens, NSCLC
[26] = system: 786-0; experiment: NCI 60 cell line panel; format: cell-based; conditions: Homo sapiens
[27] = system: OVCAR-8; experiment: NCI 60 cell line panel; format: cell-based; conditions: Homo sapiens, Ovarian cancer
[28] = system: CAKI-1; experiment: NCI 60 cell line panel; format: cell-based; conditions: Homo sapiens, Renal Cancer
[29] = system: SNB-75; experiment: NCI 60 cell line panel; format: cell-based; conditions: Homo sapiens, CNS Cancer
[30] = system: SW-620; experiment: NCI 60 cell line panel; format: cell-based; conditions: Homo sapiens, Colon Cancer
[31] = system: A431 cancer cells; experiment: A431 cytotoxicity (cell proliferation); format: cell-based, human; conditions: Homo sapiens, A-431
[32] = system: MDA-MB-231/ATCC; experiment: NCI 60 cell line panel; format: cell-based; conditions: Homo sapiens, Breast Cancer
[33] = system: NCI-H23; experiment: NCI 60 cell line panel; format: cell-based; conditions: Homo sapiens, NSCLC
[34] = system: OVCAR-3; experiment: NCI 60 cell line panel; format: cell-based; conditions: Homo sapiens, Ovarian cancer
[35] = system: NCI-H226; experiment: NCI 60 cell line panel; format: cell-based; conditions: Homo sapiens, NSCLC
[36] = system: HCT-15; experiment: NCI 60 cell line panel; format: cell-based; conditions: Homo sapiens, Colon Cancer
[37] = system: COLO 205; experiment: NCI 60 cell line panel; format: cell-based; conditions: Homo sapiens, Colon Cancer
[38] = system: RXF 393; experiment: NCI 60 cell line panel; format: cell-based; conditions: Homo sapiens, Renal Cancer
[39] = system: HT29; experiment: NCI 60 cell line panel; format: cell-based; conditions: Homo sapiens, HT-29, Colon Cancer
[40] = system: UACC-62; experiment: NCI 60 cell line panel; format: cell-based; conditions: Homo sapiens, Melanoma
[41] = system: OVCAR-5; experiment: NCI 60 cell line panel; format: cell-based; conditions: Homo sapiens, Ovarian cancer
[42] = system: SF-295; experiment: NCI 60 cell line panel; format: cell-based; conditions: Homo sapiens, CNS Cancer
[43] = system: UO-31; experiment: NCI 60 cell line panel; format: cell-based; conditions: Homo sapiens, Renal Cancer
[44] = system: MDA-MB-435; experiment: NCI 60 cell line panel; format: cell-based; conditions: Homo sapiens, Melanoma
[45] = system: HOP-62; experiment: NCI 60 cell line panel; format: cell-based; conditions: Homo sapiens, NSCLC
[46] = system: LOX IMVI; experiment: NCI 60 cell line panel; format: cell-based; conditions: Homo sapiens, Melanoma
[47] = system: DU-145; experiment: NCI 60 cell line panel; format: cell-based; conditions: Homo sapiens, Prostate Cancer
[48] = system: CCRF-CEM; experiment: NCI 60 cell line panel; format: cell-based; conditions: Homo sapiens, Leukemia
[49] = system: PC-3; experiment: NCI 60 cell line panel; format: cell-based; conditions: Homo sapiens, Prostate Cancer
[50] = system: BT-549; experiment: NCI 60 cell line panel; format: cell-based; conditions: Homo sapiens

**Q.** For `Cc1nc(N(C)c2ccc3occc3c2)c2cc(C)oc2n1` [Compound 7, N-1-benzofuran-5-yl-N,2,6-trimethylfuro[2,3-d]pyrimidin-4-amine], which GI50 [1] is on record?
**A.** The GI50 was 43.8 nM.

**Q.** And the GI50 [2]?
**A.** The GI50 was 77.1 nM.

**Q.** What about the IC50 [3] of the same compound?
**A.** The IC50 was 425 ± 53.1 nM.

**Q.** What about the GI50 [4] of the same compound?
**A.** The GI50 was 98 nM.

**Q.** And the GI50 [5]?
**A.** Its GI50 is 51.7 nM.

**Q.** And the IC50 [6]?
**A.** The IC50 was 133 ± 1.7 nM.

**Q.** What about the GI50 [7] of the same compound?
**A.** The GI50 was 41.2 nM.

**Q.** And the GI50 [8]?
**A.** Its GI50 is 93.6 nM.

**Q.** What about the GI50 [9] of the same compound?
**A.** The GI50 was 527 nM.

**Q.** What about the GI50 [10] of the same compound?
**A.** Its GI50 is 50.4 nM.

**Q.** What about the GI50 [11] of the same compound?
**A.** Its GI50 is 60.9 nM.

**Q.** What about the GI50 [12] of the same compound?
**A.** Its GI50 is 82.4 nM.

**Q.** What about the GI50 [13] of the same compound?
**A.** The GI50 was 611 nM.

**Q.** What about the GI50 [14] of the same compound?
**A.** Its GI50 is 40.4 nM.

**Q.** What about the IC50 [15] of the same compound?
**A.** Its IC50 is 302 ± 23.4 nM.

**Q.** What about the GI50 [16] of the same compound?
**A.** Its GI50 is 47.3 nM.

**Q.** And the GI50 [17]?
**A.** The GI50 was 382 nM.

**Q.** And the GI50 [18]?
**A.** The GI50 was 265 nM.

**Q.** And the GI50 [19]?
**A.** Its GI50 is 37.6 nM.

**Q.** What about the GI50 [20] of the same compound?
**A.** Its GI50 is 58.4 nM.

**Q.** What about the IC50 [21] of the same compound?
**A.** Its IC50 is 5.8 ± 0.73 nM.

**Q.** And the “fold better than sunitinib, VEGFR-2” value ([21]; vs sunitinib)?
**A.** The value was 3 fold.

**Q.** And the GI50 [22]?
**A.** The GI50 was 84 nM.

**Q.** And the GI50 [23]?
**A.** The GI50 was 396 nM.

**Q.** And the IC50 [24]?
**A.** Its IC50 is 243 ± 15.1 nM.

**Q.** And the “Rr value (relative resistance)” value ([24]; WTβ3 vs HeLa)?
**A.** Its value is 0.8.

**Q.** And the GI50 [25]?
**A.** The GI50 was 138 nM.

**Q.** And the GI50 [26]?
**A.** Its GI50 is 1040 nM.

**Q.** What about the GI50 [27] of the same compound?
**A.** Its GI50 is 330 nM.

**Q.** What about the GI50 [28] of the same compound?
**A.** The GI50 was 57.9 nM.

**Q.** What about the GI50 [29] of the same compound?
**A.** The GI50 was 103 nM.

**Q.** What about the GI50 [30] of the same compound?
**A.** The GI50 was 58.8 nM.

**Q.** And the IC50 [31]?
**A.** The IC50 was 73.2 ± 10.1 nM.

**Q.** What about the GI50 [32] of the same compound?
**A.** Its GI50 is 223 nM.

**Q.** And the GI50 [33]?
**A.** Its GI50 is 206 nM.

**Q.** And the GI50 [34]?
**A.** The GI50 was 30 nM.

**Q.** What about the GI50 [35] of the same compound?
**A.** The GI50 was 217 nM.

**Q.** What about the GI50 [36] of the same compound?
**A.** Its GI50 is 51.9 nM.

**Q.** And the GI50 [37]?
**A.** The GI50 was 139 nM.

**Q.** And the GI50 [38]?
**A.** The GI50 was 57.2 nM.

**Q.** What about the GI50 [39] of the same compound?
**A.** The GI50 was 51.9 nM.

**Q.** What about the GI50 [40] of the same compound?
**A.** Its GI50 is 57.1 nM.

**Q.** What about the GI50 [41] of the same compound?
**A.** The GI50 was 531 nM.

**Q.** What about the GI50 [42] of the same compound?
**A.** The GI50 was 41.7 nM.

**Q.** What about the GI50 [43] of the same compound?
**A.** The GI50 was 278 nM.

**Q.** And the GI50 [44]?
**A.** Its GI50 is 21.1 nM.

**Q.** What about the GI50 [45] of the same compound?
**A.** The GI50 was 75.2 nM.

**Q.** What about the GI50 [46] of the same compound?
**A.** The GI50 was 162 nM.

**Q.** And the GI50 [47]?
**A.** Its GI50 is 198 nM.

**Q.** What about the GI50 [48] of the same compound?
**A.** Its GI50 is 121 nM.

**Q.** And the GI50 [49]?
**A.** Its GI50 is 183 nM.

**Q.** And the GI50 [50]?
**A.** Its GI50 is 432 nM.

**Q.** Which results are given for `COc1ccc2c(c1)CCCN2c1nc(C)nc2oc(C)cc12` [Compound 10, 4-(6-methoxy-3,4-dihydroquinolin-1(2H)-yl)-2,6-dimethylfuro[2,3-d]pyrimidine]?
**A.** GI50 [1]: < 10 nM; GI50 [2]: < 10 nM; IC50 [3]: 12.9 ± 1.2 nM; GI50 [4]: < 10 nM; GI50 [5]: < 10 nM; IC50 [6]: 9.8 ± 0.9 nM; GI50 [7]: < 10 nM; GI50 [8]: < 10 nM; GI50 [9]: 16.8 nM; GI50 [10]: < 10 nM; GI50 [11]: < 10 nM; GI50 [12]: < 10 nM; GI50 [13]: < 10 nM; GI50 [14]: < 10 nM; IC50 [15]: 13.5 ± 0.5 nM; GI50 [16]: < 10 nM; GI50 [17]: < 10 nM; GI50 [18]: < 10 nM; GI50 [19]: < 10 nM; GI50 [20]: < 10 nM; IC50 [21]: 33.2 ± 5 nM; GI50 [22]: < 10 nM; GI50 [23]: < 10 nM; IC50 [24]: 9.1 ± 1.8 nM; GI50 [25]: < 10 nM; GI50 [26]: < 10 nM; GI50 [27]: < 10 nM; GI50 [28]: < 10 nM; GI50 [29]: < 10 nM; GI50 [30]: < 10 nM; IC50 [31]: 18 ± 2.9 nM; GI50 [32]: 11.4 nM; GI50 [33]: < 10 nM; GI50 [34]: < 10 nM; GI50 [35]: 13 nM; GI50 [36]: < 10 nM; GI50 [37]: < 10 nM; GI50 [38]: < 10 nM; GI50 [39]: < 10 nM; GI50 [40]: < 10 nM; GI50 [41]: 43 nM; GI50 [42]: < 10 nM; GI50 [43]: < 10 nM; GI50 [44]: < 10 nM; GI50 [45]: < 10 nM; GI50 [46]: < 10 nM; GI50 [47]: < 10 nM; GI50 [48]: < 10 nM; GI50 [49]: < 10 nM; GI50 [50]: < 10 nM
